US20150374705A1, “Substances for treatment or relief of pain” (Shanghai Institues for Biological Sciences, priority 2012, published 2015)
Entries after “also recorded” stand apart in the source; their conditions may differ.

Tests used:
[1] = target: T1, Human recombinant GABAA receptor containing α3 subunit (Homo sapiens, UniProt P18507+P34903); experiment: Electrophysiological inverse agonist efficacy on GABA-induced current; format: cell-based; settings: change of GABA-induced current; negative = inhibition
T1 construct: expressed in transfected cells; host or cells: 293 cell line
Protocol: (§1) Different subunits of GABAA receptor were expressed in cell lines, including human kidney epithelial cell line, 293 cell line or L(tk−) cell line. The cells were cultured in medium, and such cells were used as the cellular model for screening drugs to suppress pain. a subunit, β subunit and γ subunit are indispensable for one complete functional GABAA receptor.
(§2) (d) simultaneously expressing α3 subunit (for the protein sequence, see GenBank accession number NM_000808.3), β3 subunit and γ2 subunit in 293 cell line, forming the GABAA receptor containing α3 subunit;
(§3) The inventors used electrophysiological methods to measure the inverse agonist efficacy of the substances to be measured, see the method described in literature (Ballard T M et al., RO4938581, a novel cognitive enhancer acting at GABAA alpha5 subunit-containing receptors. Psychopharmacology (Berl). 2009 January; 202 (1-3): 207-23). […] Many methods can be used by those skilled in the art to evaluate the binding capacity of the ligand of α5-GABAA receptor to the α5-GABAA receptor, including but not limiting to the method above.
(§4) Inverse agonist efficacy represents the inhibition percentage of the candidate substance on the current induced by GABA through α5-GABAA receptor=(the current intensity induced by GABA through α5-GABAA receptor with the existence of candidate substance−the current intensity induced by GABA through α5-GABAA receptor without the existence of candidate substance)/the current intensity induced by GABA through α5-GABAA receptor without the existence of candidate substance.

[2] = target: T2, Human recombinant GABAA receptor containing α1 subunit (α1, β3, γ2) (Homo sapiens, UniProt P14867+P18507); experiment: Competitive radioligand binding ([3H]Ro-0151788) on membranes of 293 cells, Ki; settings: human recombinant GABAA subtype containing α1; read-out: Affinity, nM (α1)
T2 construct: expressed in transfected cells; host or cells: 293 cell line
Protocol: as §1
(§5) In this example, the inventors established the following cellular models:
(§6) (b) simultaneously expressing α1 subunit (GenBank accession number: NM_001127648.1), β3 subunit and γ2 subunit in 293 cell line, forming the GABAA receptor containing α1 subunit; • (c) simultaneously expressing α2 subunit (for the protein sequence, see GenBank accession number NM_000813.2), β3 subunit and γ2 subunit in 293 cell line, forming the GABAA receptor containing α2 subunit;
(§7) Each of the (a) to (d) above could form a GABAA receptor with complete function.
(§8) Then, the cellular membrane was extracted and the protein concentration was measured. The competitive binding of the substances to be measured and radiolabelled compounds (e.g. 1 nM [^3H]Ro-0151788) were detected respectively to calculate the Ki value of the substances to be measured, see the method described in literature (Ballard T M et al., RO4938581, a novel cognitive enhancer acting at GABAA alpha5 subunit-containing receptors. Psychopharmacology (Berl). 2009 January; 202(1-3): 207-23). If the binding inhibition constant Ki (nM) of α5-GABAA receptor with the candidate substances in experimental group is less than the Ki of the receptor containing other a subunit (α1 subunit, α2 subunit or α3 subunit), then the candidate substance is a potential drugs for preventing, relieving or treating pain. Many methods can be used by those skilled in the art to evaluate the binding capacity of the ligand of α5-GABAA receptor to the α5-GABAA receptor, including but not limiting to the method above.

[3] = tested on: CFA induced inflammatory pain model rats (mechanical pain); experiment: CFA induced inflammatory pain model, mechanical pain threshold; format: in vivo; settings: rat
[4] = target: T3, Human recombinant GABAA receptor containing α3 subunit (α3, β3, γ2) (Homo sapiens, UniProt P18507+P34903); experiment: Competitive radioligand binding ([3H]Ro-0151788) on membranes of 293 cells, Ki; settings: human recombinant GABAA subtype containing α3; read-out: Affinity, nM (α3)
T3 construct: expressed in transfected cells; host or cells: 293 cell line
Protocol: as §1, §5, §2, §7, §8

[5] = target: T4, Human recombinant GABAA receptor containing α5 subunit (α5, β3, γ2) (Homo sapiens, UniProt P18507+P31644); experiment: as above; settings: human recombinant GABAA subtype containing α5; read-out: Affinity, nM (α5)
T4 construct: expressed in transfected cells; host or cells: 293 cell line
Protocol: as §1, §5
(§9) (a) simultaneously expressing α5 subunit (for the protein sequence, see GenBank accession number NM_001165037.1), β3 subunit (for the protein sequence, see GenBank accession number NM_021912.4) and γ2 subunit (for the protein sequence, see GenBank accession number NM_198904.2) in 293 cell line, forming the GABAA receptor containing α5 subunit;
as §7, §8

[6] = target: T5, Human recombinant GABAA receptor containing α1 subunit (Homo sapiens, UniProt P14867+P18507); experiment: Electrophysiological inverse agonist efficacy on GABA-induced current; format: cell-based; settings: change of GABA-induced current; negative = inhibition
T5 construct: expressed in transfected cells; host or cells: 293 cell line
Protocol: as §1, §6, §3, §4

[7] = tested on: Human recombinant GABAA receptor containing α2 subunit; experiment: as above; format: cell-based; settings: change of GABA-induced current; negative = inhibition
Protocol: as §1, §6, §3, §4

[8] = target: T6, Human recombinant α5-GABAA receptor (Homo sapiens, UniProt P18507+P31644); experiment: as above; format: cell-based; settings: change of GABA-induced current; negative = inhibition
T6 construct: expressed in transfected cells; host or cells: 293 cell line
Protocol: as §1, §9, §3, §4

SMILES | Inverse agonist efficacy, % (α3) [1] | Ki [2] | Suppression of mechanical pain ([3]; oral administration, 7 days after CFA model, 1 hour after administration) | Ki [4] | Ki [5] | Inverse agonist efficacy, % (α1) [6] | Inverse agonist efficacy, % (α2) [7] | Inverse agonist efficacy, % (α5) [8] | Suppression of mechanical pain ([3]; 3 mg/kg intraperitoneal, 7 days after CFA, 0.5-24 hours after administration, listed as A5I, 3 mg/kg)
Cn1ncnc1COc1nn2c(-c3cc(CO)on3)nncc2c1C(C)(C)C [MRK016-M3, (3-(3-tert-butyl-2-((2-methyl-2H-1,2,4-triazol-3-yl)methoxy)pyrazolo [1,5-d][1,2,4]triazin-7-yl)isoxazol-5-yl)methanol] | −15% | 1.5 nM | significantly suppress inflammatory pain; also recorded: significantly suppressed pain | 0.69 nM | 1.1 nM | −11% | −1% | −52% | 
Cc1cc(-c2nnc3c4ccccc4c(OCC4=CC(C)C=N4)nn23)no1 (stereo not drawn) [α5IA] | 4% | 0.88 nM |  | 0.61 nM | 0.66 nM | −4% | 12% | −29% | efficiently treat mechanical pain; also recorded: efficiently inhibit inflammatory pain
